Data: patent US20250376476A1, “Crystalline forms of a HER2 tyrosine kinase inhibitor” (Boehringer Ingelheim International GmbH, priority 2024, published 2025)
One block for each compound: values may come before it.

Key:
Assay type in all cases: physicochemical
[1] = Thermal gravimetric analysis (TGA); settings: ambient to 600° C., heating rate 20° C./min
Experimental: TGA was performed with a TA Instruments TGA 550. Samples (5 mg) were heated in aluminium pans with a sealed aluminium lid from ambient temperature to 600° C. at a heating rate of 20° C./min. Processing was completed using TRIOS software.

[2] = Polarized light microscopy (PLM), crystal habit
Description: Crystal habits of zongertinib forms XXIV, XIX and XX have been elucidated using polarized light microscopy. Depending on the starting material, form XVIII can be obtained in different crystal shapes.

[3] = Form IV slurry experiments in aqueous organic solvents with heat-cool cycles, solids analyzed by XRPD; settings: 20 to 50° C. heat-cool cycles
Experimental: Zongertinib form IV (e.g. prepared according to any one of the procedures of reference example 1.3) was slurried in different aqueous organic solvent systems (12V, composition according to table 1) at a temperature ranging from 20 to 50° C. using a magnetic stir bar. Heat-cool-cycles were conducted using automation available on the Junior robot and as per the below program: • 1. Set stirring to 350 rpm (by means of magnetic stir bars) • 2. Heat to 50° C. (10° C./minute) • 3. Hold at 50° C. for 150 minutes • 4. Cool to 20° C. (−1° C./minute) • 5. Hold at 20° C. for 120 minutes • 6. Heat to 50° C. (5° C./minute) • 7. Hold at 50° C. for 120 minutes • 8. Cool to 20° C. (−1° C./minute) • 9. Set stirring to 0 rpm • 10. Hold at 20° C. for 16 hrs
The solids were collected and analyzed by XRPD.
(§1) XRPD was performed with a Bruker D8 Discover X-ray diffractometer. The instrument detector allows for two-dimensional diffractograms to be acquired. Solid samples were placed on a zero-background diffraction plate. The results were processed using DIFFRAC.EVA software. The diffraction pattern was integrated from two-dimensional to one-dimensional. The Kα2 contribution was stripped, no smoothing or background correction was performed. A typical precision of the 2-Theta values is in the range of ±0.2° 2-Theta, preferably in the range of ±0.1° 2-Theta. Thus, a reflection that usually appears at 7.0 2-Theta for example can appear between 6.8° and 7.2° 2-Theta, preferably between 6.9° and 7.1° 2-Theta on most X-ray diffractometers under standard conditions.

[4] = Suspension of form IV and form III stirred at 35° C. for 18 hrs, solid analyzed by XRPD; settings: mixture of form IV and form III
Experimental: (§2) A suspension of zongertinib form IV (e.g. prepared according to any one of the procedures of reference example 1.3) and zongertinib form III (e.g. prepared according to reference example 1.2) in 20V of 1:1 (vol:vol) IPAc/water was stirred using overhead agitation at 35° C. for 18 hrs. The solid was collected and analyzed by XRPD confirming receipt of form XX.
as §2, with “water” for “1:1 (vol:vol) IPAc/water”
as §1, with “Thus, a reflection that usually appears at 7.0 2-Theta for example can appear between 6.8° and 7.2° 2-Theta, preferably between 6.9° and 7.1° 2-Theta on most X-ray diffractometers under standard conditions.” left out

[5] = Excessive drying of form XXIV and/or form XIX; settings: typically temperatures >50° C. under vacuum
Experimental: Form XVIII is formed upon excessive drying of form XXIV and/or form XIX (e.g. prepared according to any one of examples 1.1 to 1.4 herein). Typically, drying is performed at temperatures >50° C. under vacuum.

TGA sample decomposition start temperature ([1]; listed as form XX): about 393 °C
Crystal Habit ([2]; listed as XX): needle-shaped crystals
Structure (SMILES): C=CC(=O)NC1CCN(c2ncc3ncnc(Nc4ccc(Oc5ccc6c(c5)ncn6C)c(C)c4)c3n2)CC1 [Form XX, zongertinib]

Form obtained upon excessive drying [5]: Form XVIII
TGA sample decomposition start temperature ([1]; listed as form XXIV): about 415 °C
Crystal Habit ([2]; listed as XXIV): plate-shaped and lath shaped crystals
Structure (SMILES): C=CC(=O)NC1CCN(c2ncc3ncnc(Nc4ccc(Oc5ccc6c(c5)ncn6C)c(C)c4)c3n2)CC1 [Form XXIV, zongertinib]

The next lines start with the compound.

Structure (SMILES): C=CC(=O)NC1CCN(c2ncc3ncnc(Nc4ccc(Oc5ccc6c(c5)ncn6C)c(C)c4)c3n2)CC1 [Form XVIII, zongertinib]
TGA sample decomposition start temperature ([1]; listed as form XVIII): about 394 °C
Crystal Habit ([2]; listed as XVIII (drying of XIX)): lath-shaped crystals
Crystal Habit ([2]; listed as XVIII (drying of XXIV)): plate-shaped and lath shaped crystals

Structure (SMILES): C=CC(=O)NC1CCN(c2ncc3ncnc(Nc4ccc(Oc5ccc6c(c5)ncn6C)c(C)c4)c3n2)CC1 [Form XIX, zongertinib]
TGA sample decomposition start temperature ([1]; listed as form XIX): about 327 °C
Crystal Habit ([2]; listed as XIX): lath-shaped crystals

Structure (SMILES): C=CC(=O)NC1CCN(c2ncc3ncnc(Nc4ccc(Oc5ccc6c(c5)ncn6C)c(C)c4)c3n2)CC1 [Form IV, zongertinib]
XRPD results after slurry ([3]; 12V 1:1 (vol:vol) ACN:water): Form XIX
XRPD results after slurry ([3]; 12V 1:1 (vol:vol) EtOH:water): Form XIX
XRPD results after slurry ([3]; 12V 1:1 (vol:vol) IPAc:water): Form XXIV
XRPD results after slurry ([3]; 12V 2:1 (vol:vol) THF:water): Form XXIV
Solid form by XRPD after stirring suspension ([4]; 20V of 1:1 (vol:vol) IPAc/water): form XX
Solid form by XRPD after stirring suspension ([4]; 20V of water): form XX
